Test results: patent US20090221581A1, “Methods of treating pain” (priority 2005, published 2009)
pIC50: −log10 of the molar value.

Experiments:
CDK5/p35NCK = biological target: T1, CDK5/p35NCK (Homo sapiens, UniProt Q00535); test: In vitro kinase inhibition assay, CDK5/p35NCK; type: biochemical
T1 construct: made in house; host or cells: Sf9 insect cells, baculovirus

CDK7/CycH/MAT1 = biological target: T2, CDK7/CycH/MAT1 (Homo sapiens, UniProt P50613); test: In vitro kinase inhibition assay, CDK7/CycH/MAT1; type: biochemical
T2 construct: made in house; host or cells: Sf9 insect cells, baculovirus

SNI mice = test: Spared nerve injury (SNI) model of chronic neuropathic pain, von Frey assay; type: in vivo
Text: As outlined above, the spared nerve injury (SNI) model (see FIG. 1) involves a lesion of two of the three terminal branches of the sciatic nerve (tibial and common peroneal nerves) of experimental animals, leaving the sural nerve intact. SNI results in mechanical and thermal allodynia in the non-injured sural nerve skin territory (Decosterd & Woolf, Pain 2000; 87:149-158; Tsujino et al., Mol. Cel. Neurosci. 2000; 15:170-182).
Wildtype mice (strain C3HeB/FeJ) (age, sex and weight matched) were anesthetized with Hypnorm (0.315 mg/ml fentanyl citrate+10 mg/ml fluanisone; Janssen)/Hypnovel (5 mg/ml midazolam; Roche Applied Sciences)/water at a ratio of 1:1:2 at 4 μl/g prior to surgical preparation.
Subsequently, an incision was made under aseptic precautions in the ipsi-lateral right hind leg of all mice just above the level of the knee, exposing the three terminal branches of the sciatic nerve: the common peroneal, tibial, and sural nerves. The common peroneal and tibial nerves were ligated tightly with 7/0 silk and sectioned distal to the ligation removing ≈2 mm of distal nerve stump. The sural branch remained untouched during the procedure (denoted herein “SNI ipsi”). The overlying muscle and skin was sutured, and the animals were allowed to recover and to permit wound healing. In the same mice, the sciatic nerve branches of the contra-lateral left hind leg were exposed but not lesioned (denoted herein “SNI contra-lateral”). Mice that underwent spared nerve injury are hereinafter denoted “SNI mice”.
After recovery from surgery and wound healing, SNI mice received intraperitoneal (i.p.) injections of CDK-inhibiting compounds. In particular, compound A and B as disclosed herein, belonging to the class of 4,6-disubstituted aminopyrimidine derivatives as described in WO2005/026129 were administered. […]
Injection of inhibitor or vehicle, and subsequent measurements of paw withdrawal threshold upon mechanical stimulation in von Frey assays were performed at day 0, day 7, day 21 and day 28 post SNI. Reflex nociceptive responses to mechanical stimulation were measured in a von Frey assay 30 min after each injection. An additional von Frey measurement was performed at day 14, but without prior injection of compound or vehicle.
Mice which underwent SNI and subsequent administration of the CDK-inhibiting compounds of the present invention were tested for signs of mechanical allodynia post nerve injury and post administration in a von Frey assay (Decosterd and Woolf, Pain 2000; 87:149-158). This assay determines the mechanical threshold upon which a stimulus, which normally is not painful, is recognized by an animal as uncomfortable or painful. SNI ipsi and SNI contra baselines, respectively, were established.
Mechanical thresholds of SNI mice were quantified using the up-down method based on Chaplan et al. (1994) and Malmberg and Basbaum (1998):
Mice were placed in plexiglass cylinders of about 9.5 cm in diameter, 14 cm high with four vent holes towards the top and a Plexiglas lid. The cylinders were placed on an elevated mesh surface (7×7 mm squares). Prior to the day of testing, the mice were adapted to the testing cylinders for 1-2 hours. On the day of testing the mice were adapted to the cylinders for about an hour, wherein the adaptation time depends on factors such as the strain of the mouse and the number of times they have been tested previously. In general, testing may begin once the mice are calm and stop exploring the new environment.
For testing mice, filaments 2.44, 2.83, 3.22, 3.61, 3.84, 4.08, and 4.31 (force range=0.04 to 2.0 g) were used. The […] filament was applied first. Said filament was gently applied to the plantar surface of one paw, allowed to bend, and held in position for 2-4 seconds. Whenever a positive response to the stimulus (flexion reaction) occurred, the next weaker von Frey filament was applied; whenever a negative response (no reaction) occurred, the next stronger force was applied. […]

T2 sequence (P50613 whole entry): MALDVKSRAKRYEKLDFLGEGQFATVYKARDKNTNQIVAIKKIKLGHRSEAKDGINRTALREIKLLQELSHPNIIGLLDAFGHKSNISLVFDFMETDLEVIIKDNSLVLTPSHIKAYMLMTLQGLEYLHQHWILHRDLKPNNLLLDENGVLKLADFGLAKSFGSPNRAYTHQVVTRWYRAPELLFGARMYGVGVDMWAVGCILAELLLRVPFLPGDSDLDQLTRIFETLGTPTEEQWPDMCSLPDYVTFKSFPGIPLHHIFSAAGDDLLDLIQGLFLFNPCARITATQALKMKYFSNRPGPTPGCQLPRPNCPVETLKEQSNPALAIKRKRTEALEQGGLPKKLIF
T2 sequence (P51946 whole entry partner): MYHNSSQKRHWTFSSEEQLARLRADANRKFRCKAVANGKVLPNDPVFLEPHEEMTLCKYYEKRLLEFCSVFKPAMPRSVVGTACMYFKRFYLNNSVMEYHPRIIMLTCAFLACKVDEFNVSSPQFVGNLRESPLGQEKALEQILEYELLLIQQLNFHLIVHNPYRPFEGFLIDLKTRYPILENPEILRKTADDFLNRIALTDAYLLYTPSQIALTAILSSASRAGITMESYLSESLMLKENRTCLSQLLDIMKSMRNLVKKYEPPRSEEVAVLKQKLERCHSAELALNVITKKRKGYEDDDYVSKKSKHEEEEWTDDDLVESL
T2 sequence (P51948 whole entry partner): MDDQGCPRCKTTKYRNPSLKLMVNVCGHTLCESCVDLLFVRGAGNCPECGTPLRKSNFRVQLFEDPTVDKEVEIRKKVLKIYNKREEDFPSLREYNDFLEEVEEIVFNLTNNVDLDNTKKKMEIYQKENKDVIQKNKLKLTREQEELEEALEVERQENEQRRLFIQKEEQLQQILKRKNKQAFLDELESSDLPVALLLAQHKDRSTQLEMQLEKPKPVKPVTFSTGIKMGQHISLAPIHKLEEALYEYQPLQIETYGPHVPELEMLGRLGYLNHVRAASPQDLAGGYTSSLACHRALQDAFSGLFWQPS
T1 sequence (Q00535 whole entry): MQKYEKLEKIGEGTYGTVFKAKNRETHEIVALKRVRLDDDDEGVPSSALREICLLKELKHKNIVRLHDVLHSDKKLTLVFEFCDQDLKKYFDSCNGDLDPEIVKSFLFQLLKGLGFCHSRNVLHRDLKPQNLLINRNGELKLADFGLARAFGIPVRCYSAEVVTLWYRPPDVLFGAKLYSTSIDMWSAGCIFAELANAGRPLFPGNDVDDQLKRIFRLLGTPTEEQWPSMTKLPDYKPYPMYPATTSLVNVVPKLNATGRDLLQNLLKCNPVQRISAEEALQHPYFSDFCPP
T1 sequence (Q15078 whole entry partner): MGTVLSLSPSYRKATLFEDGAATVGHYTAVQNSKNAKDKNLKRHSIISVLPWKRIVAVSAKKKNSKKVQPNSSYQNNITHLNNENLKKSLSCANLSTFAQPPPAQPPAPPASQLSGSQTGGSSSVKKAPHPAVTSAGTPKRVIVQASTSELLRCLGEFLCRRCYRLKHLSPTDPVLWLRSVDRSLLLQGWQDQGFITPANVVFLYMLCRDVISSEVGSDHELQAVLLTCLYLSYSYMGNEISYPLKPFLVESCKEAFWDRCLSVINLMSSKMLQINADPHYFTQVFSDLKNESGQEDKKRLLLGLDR

COc1ccccc1-c1cc(Nc2cccc(S(N)(=O)=O)c2)ncn1 [Compound A]
pIC50 (CDK5/p35NCK): 4.24 | pIC50 (CDK7/CycH/MAT1): 5.00 | effect on von Frey mechanical threshold (SNI mice; 30 mg/kg at midnight and 8.00 a.m., measured 8.30 a.m., day 28 post SNI): significant increases in thresholds | effect on SNI-induced allodynia (von Frey) (SNI mice; 30 mg/kg i.p. 30 minutes before von Frey testing): hypoalgesic effect | effect on von Frey mechanical threshold (SNI mice; 30 mg/kg i.p. 30 minutes prior to measurements, day 21 post SNI): significant increase of threshold values | effect on von Frey mechanical threshold (SNI mice; 30 mg/kg i.p., day 7 post SNI): does not show any effect | average von Frey threshold value, contra-lateral paw (SNI mice; 30 mg/kg i.p., day 21 and 28): ~0.4 g | average von Frey threshold value, ipsi-lateral paw (SNI mice; 30 mg/kg i.p., day 21 and 28): ~0.3 g
